Source: patent publication EP3623369A1, “NOVEL MORPHOLINYL AMINE COMPOUNDS FOR THE TREATMENT OF AUTOIMMUNE DISEASE” (F. Hoffmann-La Roche AG, priority 2018, dated 2020)

Target: T1, hTLR7 (Homo sapiens, UniProt Q9NYK1)
T1 sequence (Q9NYK1 27-1049): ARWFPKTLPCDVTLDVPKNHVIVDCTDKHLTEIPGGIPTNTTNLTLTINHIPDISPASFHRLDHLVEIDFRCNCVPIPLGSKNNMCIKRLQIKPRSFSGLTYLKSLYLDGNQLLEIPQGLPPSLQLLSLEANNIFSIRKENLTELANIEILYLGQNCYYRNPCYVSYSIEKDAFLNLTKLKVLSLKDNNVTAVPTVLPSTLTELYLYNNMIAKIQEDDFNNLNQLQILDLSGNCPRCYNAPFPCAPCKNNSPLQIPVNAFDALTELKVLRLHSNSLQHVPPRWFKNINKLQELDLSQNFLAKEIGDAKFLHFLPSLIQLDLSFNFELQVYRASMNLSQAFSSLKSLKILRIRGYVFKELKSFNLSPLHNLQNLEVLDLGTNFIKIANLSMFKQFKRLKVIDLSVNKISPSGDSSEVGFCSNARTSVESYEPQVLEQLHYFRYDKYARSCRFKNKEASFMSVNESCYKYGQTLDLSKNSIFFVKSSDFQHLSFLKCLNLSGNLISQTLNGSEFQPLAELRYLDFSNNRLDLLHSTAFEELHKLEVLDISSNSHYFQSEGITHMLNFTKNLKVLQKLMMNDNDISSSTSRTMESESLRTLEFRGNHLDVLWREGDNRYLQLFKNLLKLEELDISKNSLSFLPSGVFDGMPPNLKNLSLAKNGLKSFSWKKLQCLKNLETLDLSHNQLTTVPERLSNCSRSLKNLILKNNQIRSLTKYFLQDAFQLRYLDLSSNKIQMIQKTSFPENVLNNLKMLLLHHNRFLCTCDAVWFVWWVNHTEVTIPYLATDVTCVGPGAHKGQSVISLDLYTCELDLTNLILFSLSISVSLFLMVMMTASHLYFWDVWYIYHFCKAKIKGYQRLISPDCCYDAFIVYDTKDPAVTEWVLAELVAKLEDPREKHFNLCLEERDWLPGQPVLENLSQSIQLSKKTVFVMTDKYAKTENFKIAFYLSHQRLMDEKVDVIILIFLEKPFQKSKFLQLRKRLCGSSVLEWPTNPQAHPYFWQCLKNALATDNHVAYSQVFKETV
Experiment: HEK293-Blue-hTLR-7 cells assay (SEAP reporter, R848 stimulation)
Type: cell-based
Settings: HEK293-Blue-hTLR7 cells, R848, 20 hrs; 0.003 is the lowest tested concentration; read-out: HEK/hTLR7 IC50
Protocol: The following tests were carried out in order to determine the activity of the compounds of formula (I) or (Ia) in HEK293-Blue-hTLR-7/8/9 cells assay.
HEK293-Blue-hTLR-7 cells assay:
A stable HEK293-Blue-hTLR-7 cell line was purchased from InvivoGen (Cat.#: hkb-htlr7, San Diego, California, USA). These cells were originally designed for studying the stimulation of human TLR7 by monitoring the activation of NF-κB. A SEAP (secreted embryonic alkaline phosphatase) reporter gene was placed under the control of the IFN-β minimal promoter fused to five NF-κB and AP-1-binding sites. The SEAP was induced by activating NF-κB and AP-1 via stimulating HEK-Blue hTLR7 cells with TLR7 ligands. Therefore the reporter expression was declined by TLR7 antagonist under the stimulation of a ligand, such as R848 (Resiquimod), for incubation of 20 hrs. The cell culture supernatant SEAP reporter activity was determined using QUANTI-Blue™ kit (Cat.#: rep-qb1, Invivogen, San Diego, Ca, USA) at a wavelength of 640 nm, a detection medium that turns purple or blue in the presence of alkaline phosphatase.
HEK293-Blue-hTLR7 cells were incubated at a density of 250,000∼450,000 cells/mL in a volume of 170 µL in a 96-well plate in Dulbecco's Modified Eagle's medium (DMEM) containing 4.5 g/L glucose, 50 U/mL penicillin, […], […], 2 mM L-glutamine, 10% (v/v) heat-inactivated fetal bovine serum with addition of 20 µL test compound in a serial dilution in the presence of final DMSO at 1% and 10 µL of 20uM R848 in above DMEM, perform incubation under 37 °C in a CO2 incubator for 20 hrs. Then 20 µL of the supernatant from each well was incubated with 180 µL Quanti-blue substrate solution at 37 °C for 2 hrs and the absorbance was read at 620∼655 nm using a spectrophotometer. The signalling pathway that TLR7 activation leads to downstream NF-κB activation has been widely accepted, and therefore similar reporter assay was modified for evaluating TLR7 antagonist.

Row | IC50 | Compound
1 | 81 nM | C[C@@H]1CN(c2ccc(C#N)n3nccc23)C[C@H](CN2CCc3cc(N4CCNCC4)ccc3C2)O1 [Example 10, 4-[(2R,6S)-2-methyl-6-[(6-piperazin-1-yl-3,4-dihydro-1H-isoquinolin-2-yl)methyl]morpholin-4-yl]pyrazolo[1,5-a]pyridine-7-carbonitrile]
2 | 6 nM | C[C@@H]1CN(c2ccc(C#N)c3nccnc23)C[C@H](CN2Cc3ccc(N4CCN[C@@H](C)C4)cc3C2)O1 [Example 66, 8-[(2R,6S)-2-methyl-6-[[5-[(3S)-3-methylpiperazin-1-yl]isoindolin-2-yl]methyl]morpholin-4-yl]quinoxaline-5-carbonitrile]
3 | 49 nM | C[C@@H]1CN(c2ccc(C#N)n3ncc(F)c23)C[C@H](CN2Cc3cc(N4CCNCC4)cnc3C2)O1 [Example 29, 3-fluoro-4-[(2R,6S)-2-methyl-6-[(3-piperazin-1-yl-5,7-dihydropyrrolo[3,4-b]pyridin-6-yl)methyl]morpholin-4-yl]pyrazolo[1,5-a]pyridine-7-carbonitrile]
4 | 56 nM | COC(=O)C1CN(c2ccc3c(c2)CN(C[C@H]2CN(c4ccc(C#N)c5ncccc45)C[C@@H](C)O2)C3)CCN1 (stereo partly drawn) [Example 67, Methyl 4-[2-[[(2S,6R)-4-(8-cyano-5-quinolyl)-6-methyl-morpholin-2-yl]methyl]isoindolin-5-yl] piperazine-2-carboxylate]
5 | 227 nM | C[C@@H]1CN(c2ccc(C#N)n3nccc23)C[C@H](CN2Cc3ccc(OCCN(C)C)cc3C2)O1 [Example 28, 4-[(2S,6R)-2-[[5-[2-(dimethylamino)ethoxy]isoindolin-2-yl]methyl]-6-methyl-morpholin-4-yl]pyrazolo[1,5-a]pyridine-7-carbonitrile]
6 | 12 nM | C[C@@H]1CN(c2ccc(C#N)c3nccnc23)C[C@H](CNCc2ccc(N3CCNCC3)cc2)O1 [Example 84, 8-[(2R,6S)-2-methyl-6-[[(4-piperazin-1-ylphenyl)methylamino]methyl]morpholin-4-yl]quinoxaline-5-carbonitrile]
7 | 42 nM | C[C@@H]1CN(c2ccc(C#N)c3ncccc23)C[C@H](CN2Cc3ccc(N4CCNCC4)cc3C(O)C2)O1 (stereo partly drawn) [Example 75, 5-[(2S,6R)-2-[(4-hydroxy-6-piperazin-1-yl-3,4-dihydro-1H-isoquinolin-2-yl)methyl]-6-methyl-morpholin-4-yl]quinoline-8-carbonitrile]
8 | 48 nM | C[C@@H]1CN(c2ccc(C#N)c3ncccc23)C[C@H](CN2Cc3ccc(N4CCNCC4CO)cc3C2)O1 (stereo partly drawn) [Example 73, 5-[(2S,6R)-2-[[5-[2-(hydroxymethyl)piperazin-1-yl]isoindolin-2-yl]methyl]-6-methyl-morpholin-4-yl]quinoline-8-carbonitrile]
9 | 32 nM | C[C@@H]1CN(c2ccc(C#N)c3ncccc23)C[C@H](CN2Cc3ccc(N4CC(N)C4)cc3C2)O1 [Example 77, 5-[(2S,6R)-2-[[5-(3-aminoazetidin-1-yl)isoindolin-2-yl]methyl]-6-methyl-morpholin-4-yl]quinoline-8-carbonitrile]
10 | 11 nM | C[C@@H]1CN(c2ccc(C#N)c3nccnc23)C[C@H](CN2Cc3cnc(N4CCNCC4)cc3C2)O1 [Example 60, 8-[(2R,6S)-2-methyl-6-[(6-piperazin-1-yl-1,3-dihydropyrrolo[3,4-c]pyridin-2-yl)methyl]morpholin-4-yl]quinoxaline-5-carbonitrile]
11 | 13 nM | C[C@@H]1CN(c2ccc(C#N)c3ncccc23)C[C@H](CN2Cc3cnc(N4CCNCC4)nc3C2)O1 [Example 63, 5-[(2R,6S)-2-methyl-6-[(2-piperazin-1-yl-5,7-dihydropyrrolo[3,4-d]pyrimidin-6-yl)methyl]morpholin-4-yl]quinoline-8-carbonitrile]
12 | 14 nM | C[C@@H]1CN(c2ccc(C#N)c3ncccc23)C[C@H](CN2Cc3cc(N4CCNCC4)cnc3C2)O1 [Example 20, 5-[(2R,6S)-2-methyl-6-[(3-piperazin-1-yl-5,7-dihydropyrrolo[3,4-b]pyridin-6-yl)methyl]morpholin-4-yl]quinoline-8-carbonitrile]
13 | 722 nM | C[C@@H]1CN(c2ccc(C#N)n3nccc23)C[C@H](CN2Cc3ccncc3C2)O1 [Example R2, 4-[(2S,6R)-2-(1,3-dihydropyrrolo[3,4-c]pyridin-2-ylmethy1)-6-methyl-morpholin-4-yl]pyrazolo[1,5-a]pyridine-7-carbonitrile, reference compound]
14 | 65 nM | C[C@@H]1CN(c2ccc(C#N)n3nccc23)C[C@H](CN2Cc3ccc(N4CCN(C)CC4)cc3C2)O1 [Example 17, 4-[(2R,6S)-2-methyl-6-[[5-(4-methylpiperazin-1-yl)isoindolin-2-yl]methyl]morpholin-4-yl]pyrazolo[1,5-a]pyridine-7-carbonitrile]
15 | 16 nM | C[C@@H]1CN(c2ccc(C#N)c3nccnc23)C[C@H](CN2Cc3cc(N4CCNCC4)cnc3C2)O1 [Example 30, 8-[(2R,6S)-2-methyl-6-[(3-piperazin-1-yl-5,7-dihydropyrrolo[3,4-b]pyridin-6-yl)methyl]morpholin-4-yl]quinoxaline-5-carbonitrile]
16 | 6 nM | C[C@@H]1CN(c2ccc(C#N)c3ncsc23)C[C@H](CN2Cc3ccc(N4CCNCC4)cc3C2)O1 [Example 23, 7-[(2R,6S)-2-methyl-6-[(5-piperazin-1-ylisoindolin-2-yl)methyl]morpholin-4-yl]-1,3-benzothiazole-4-carbonitrile]
17 | 11 nM | C[C@@H]1CN(c2ccc(C#N)c3ncccc23)C[C@H](CN2CCc3cc(N4CCNCC4)ccc3C2)O1 [Example 19, 5-[(2R,6S)-2-methyl-6-[(6-piperazin-1-yl-3,4-dihydro-1H-isoquinolin-2-yl)methyl]morpholin-4-yl]quinoline-8-carbonitrile]
18 | 20 nM | 5-[(2S,6R)-2-[[5-[3-(hydroxymethyl)piperazin-1-yl]isoindolin-2-yl]methyl]-6-methyl-morpholin-4-yl]quinoline-8-carbonitrile [Example 85]
19 | 9 nM | C[C@@H]1CN(c2ccc(C#N)c3ncccc23)C[C@H](CN2Cc3ccc(N4CCNCC4)cc3C2)O1 [Example 21, 5-[(2R,6S)-2-methyl-6-[(5-piperazin-1-ylisoindolin-2-yl)methyl]morpholin-4-yl]quinoline-8-carbonitrile]

Row | Compound | IC50
20 | C[C@@H]1CN(c2ccc(C#N)c3ncccc23)C[C@H](CN2Cc3ccc(N4CC5CCC(C4)N5)cc3C2)O1 [Example 42, 5-[(2S,6R)-2-[[5-(3,8-diazabicyclo[3.2.1]octan-3-yl)isoindolin-2-yl]methyl]-6-methyl-morpholin-4-yl]quinoline-8-carbonitrile] | 62 nM
21 | C[C@@H]1CN(c2ccc(C#N)c3ncccc23)C[C@H](CN2Cc3ccc(N4C5CCC4CNC5)cc3C2)O1 [Example 43, 5-[(2S,6R)-2-[[5-(3,8-diazabicyclo[3.2.1]octan-8-yl)isoindolin-2-yl]methyl]-6-methyl-morpholin-4-yl]quinoline-8-carbonitrile] | 60 nM
22 | C[C@@H]1CN(c2ccc(C#N)c3ncccc23)C[C@H](CNCc2ccccc2)O1 [ER-886509, reference compound] | 88 nM
